Measured values as given in patent US20120316169A1, “2-ARYL-PROPIONAMIDE DERIVATIVES USEFUL AS BRADYKININ RECEPTOR ANTAGONISTS AND PHARMACEUTICAL COMPOSITIONS CONTAINING THEM” (DOMPÉ S.P.A., priority 2009, published 2012).

Target: T1, BKB1 receptors (Homo sapiens, UniProt P46663)
T1 construct: Human (IMR-90) lung fibroblast cells expressing native B1 receptors; endogenous in cells; host or cells: IMR-90 human lung fibroblasts, interleukin-treated to up-regulate BKB1 receptors
T1 sequence (P46663 1-353): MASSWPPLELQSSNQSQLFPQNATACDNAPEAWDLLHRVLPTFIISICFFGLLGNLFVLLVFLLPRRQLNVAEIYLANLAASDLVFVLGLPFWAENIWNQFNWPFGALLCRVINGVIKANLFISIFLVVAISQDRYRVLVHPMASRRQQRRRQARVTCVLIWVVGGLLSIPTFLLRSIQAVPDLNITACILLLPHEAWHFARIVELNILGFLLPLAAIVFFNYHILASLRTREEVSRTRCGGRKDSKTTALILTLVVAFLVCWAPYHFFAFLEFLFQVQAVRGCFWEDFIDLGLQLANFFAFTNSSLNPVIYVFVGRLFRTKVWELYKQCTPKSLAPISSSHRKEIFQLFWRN
Assay: Calcium mobilization assay (FLIPR), B1 receptors in IMR-90 cells
Type: cell-based
Conditions: Human IMR-90 lung fibroblast cells, up-regulated BKB1 receptors, agonist desArg10-kallidin (DAKD) 2 to 8 nM, calcium-dependent fluorescence
Experimental: Calcium mobilization assay (FLIPR)—Human (IMR-90) lung fibroblast cells expressing native B1 receptors were harvested by trypsinization and seeded into black wall/clear bottom 96-well plates (Costar 3904; Corning Life Sciences, Acton, Mass.) at approximately 13,000 cells/well. After 1 day incubation, cells were treated with […] (0.35 ng/ml) in 10% FBS/MEM for 2 h to up-regulate BKB1 receptors. Induced cells were loaded with fluorescent calcium indicator by incubation with 2.3 μM Fluo-4/acetoxymethyl ester (Invitrogen) at 37° C. for 1.5 h in the presence of an anion transport inhibitor (2.5 mM probenecid in 1% FBS/MEM). Extracellular dye was removed by washing with assay buffer (2.5 mM probenecid, 0.1% BSA in 20 mM HEPES/HBSS without bicarbonate or phenol red, pH 7.5) and cell plates were kept in the dark until used. Test compounds were assayed at eight concentrations in triplicate. Addition of test compounds to the cell plate and incubation for 5 min at 35° C., followed by the addition of 2 to 8 nM final BK1 agonist desArg^10-kallidin (DAKD, 3×EC50) was carried out in the fluorimetric imaging plate reader (FLIPR; Molecular Devices) while continuously monitoring calcium-dependent fluorescence.

Structure (SMILES)	IC50 [µM]
CC(C(=O)Nn1cnnc1)c1ccc(Oc2cccc3ccccc23)cc1 (stereo not shown) [Compound 64, 2-[4-(naphthalen-1-yloxy)phenyl]-N-(4H-1,2,4-triazol-4-yl)propanamide]	8.91
CC(C(=O)Nc1ccncc1)c1ccc(Nc2ccc(F)cc2)cc1 (stereo not shown) [Compound 71, 2-{4-[(4-fluorophenyl)amino]phenyl}-N-(pyridin-4-yl)propanamide]	4.47
CC(C(N)=O)c1ccc(Nc2ccc3c(c2)OC(F)(F)O3)cc1 (stereo not shown) [Compound 79, 2-{4-[(2,2-difluoro-1,3-benzodioxol-5-yl)amino]phenyl}propanamide]	1.35
CC(C(=O)Nc1ccncc1)c1cccc(Oc2ccc3ccccc3c2)c1 (stereo not shown) [Compound 73, 2-[3-(naphthalen-2-yloxy)phenyl]-N-(pyridin-4-yl)propanamide]	2.82
Cc1ccc(OCC(O)CNC(=O)C(C)c2ccc(OS(=O)(=O)C(F)(F)F)cc2)cc1C (stereo not shown) [Compound 51, 4-[3-(3,4-dimethylphenoxy)-2-hydroxypropyl]amino-1-oxopropan-2-yl)phenyl trifluoromethanesulfonate]	11.5
CC1CC(C)CN(CCNC(=O)C(C)c2ccc(Nc3nc(C(F)(F)F)cs3)cc2)C1 (stereo not shown) [Compound 42, N-[2-(3,5-dimethylpiperidin-1-yl)ethyl]-2-(4-{[4-(trifluoromethyl)-1,3-thiazol-2-yl]amino}phenyl)propanamide]	6.61
CC(C(N)=O)c1cccc(Nc2ccc3c(c2)OC(F)(F)O3)c1 (stereo not shown) [Compound 76, 2-{3-[(2,2-difluoro-1,3-benzodioxol-5-yl)amino]phenyl}propanamide]	8.91
COc1cccc(Nc2ccc(C(C)C(=O)Nc3cc(C)nn3C)cc2)c1OC (stereo not shown) [Compound 25, 2-{4-[(2,3-dimethoxyphenyl)amino]phenyl}-N-(1,3-dimethyl-1H-pyrazol-5-yl)propanamide]	3.09
Cc1ccnn1CCNC(=O)C(C)(F)c1ccc(OS(=O)(=O)C(F)(F)F)cc1 (stereo not shown) [Compound 2, 4-(2-fluoro-1-{[2-(5-methyl-1H-pyrazol-1-yl)ethyl]amino}-1-oxopropan-2-yl)phenyl trifluoromethanesulfonate]	6.17
CC(C(=O)NCCCNC1CCCCC1)c1ccc(Oc2cccc3ccccc23)cc1 (stereo not shown) [Compound 63, N-[3-(cyclohexylamino)propyl]-2-[4-(naphthalen-1-yloxy)phenyl]propanamide]	3.89
CC(C(=O)NC(c1ccco1)N1CCOCC1)c1ccc(Nc2nc(C(F)(F)F)cs2)cc1 (stereo not shown) [Compound 43, N-[furan-2-yl(morpholin-4-yl)methyl]-2-(4-{[4-(trifluoromethyl)-1,3-thiazol-2-yl]amino}phenyl)propanamide]	12.9

Further lines, results first:

IC50 [µM]	Structure (SMILES)
8.91	CCOCCCNC(=O)C(C)c1cccc(Nc2cc(OC)cc(C(F)(F)F)c2)c1 (stereo not shown) [Compound 52, 2-(3-{[3-methoxy-5-(trifluoromethyl)phenyl]amino}phenyl)-N-(3-ethoxypropyl)propanamide]
1	CC(C(=O)Nc1ccncc1)c1cccc(Nc2ccc(F)cc2)c1 (stereo not shown) [Compound 74, 2-{3-[(4-fluorophenyl)amino]phenyl}-N-(pyridin-4-yl)propanamide]
11.2	Cc1cc(NC(=O)C(C)c2cccc(Oc3cccc(F)c3)c2)n(C)n1 (stereo not shown) [Compound 11, N-(1,3-dimethyl-1H-pyrazol-5-yl)-2-[3-(3-fluorophenoxy)phenyl]propanamide]
3.24	CC(C(=O)NCCNCc1ccccc1)c1ccc(Oc2cccc3ccccc23)cc1 (stereo not shown) [Compound 61, N-[2-(benzylamino)ethyl]-2-[4-(naphthalen-1-yloxy)phenyl]propanamide]
8.51	COc1cc(Nc2cccc(C(C)C(=O)NNC(=O)c3ccco3)c2)cc(C(F)(F)F)c1 (stereo not shown) [Compound 54, N′-{2-[3-(3-methoxy-5-(trifluoromethyl)phenylamino)phenyl]propanoyl}furan-2-carbohydrazide]
14.5	COc1cc(Nc2cccc(C(C)C(=O)Nn3cccc3)c2)cc(C(F)(F)F)c1 (stereo not shown) [Compound 53, 2-(3-{[3-methoxy-5-(trifluoromethyl)phenyl]amino}phenyl)-N-(1H-pyrrol-1-yl)propanamide]
3.47	COc1cc(Nc2cccc(C(C)C(=O)NCCNCc3ccccc3)c2)cc(C(F)(F)F)c1 (stereo not shown) [Compound 57, 2-{3-[(3-methoxy-5-(trifluoromethyl)phenyl)amino]phenyl}-N-[2-(benzylamino)ethyl]propanamide]
6.92	COc1cc(Nc2cccc(C(C)C(=O)NC3CCCCC3N)c2)cc(C(F)(F)F)c1 (stereo not shown) [Compound 59, N-(2-aminocyclohexyl)-2-[3-{[3-methoxy-5-(trifluoromethyl)phenyl]amino}phenyl]propanamide]
4.79	CC(C(=O)NCCC1CCCN1C)c1ccc(Oc2cccc3ccccc23)cc1 (stereo not shown) [Compound 65, 2-[4-(naphthalen-1-yloxy)phenyl]-N-[2-(1-methylpyrrolidin-2-yl)ethyl]propanamide]
6.61	CC(=O)NCCNC(=O)C(C)c1ccc(Oc2cccc3ccccc23)cc1 (stereo not shown) [Compound 66, N-[2-(acetylamino)ethyl]-2-[4-(naphthalen-1-yloxy)phenyl]propanamide]
7.24	CC(C(=O)NCCNc1ccccc1)c1cccc(Oc2cccc(F)c2)c1 (stereo not shown) [Compound 12, 2-[3-(3-fluorophenoxy)phenyl]-N-[2-(phenylamino)ethyl]propanamide]
